Reference: patent US20090163571A1, “PHARMACEUTICAL FOR USE IN THE TREATMENT OF URETEROLITHIASIS” (KISSEI PHARMACEUTICAL CO., LTD, priority 2005, published 2009)
Structures can show the parent of a compound that is named as a salt.

Key:
isolated hamster ureter = assay: Inhibition of phenylephrine-induced contraction of isolated hamster ureter (organ bath); conditions: for pA2: against phenylephrine concentration-response curve
[1] = anesthetized dogs; compared with the compound of general formula (I); cited from earlier work

Row | SMILES | pA2 (isolated hamster ureter) | decrease of blood pressure [1] | inhibitory effect against phenylephrine induced ureteral contraction (shift of concentration-response curve) (isolated hamster ureter; 3×10^−10, 1×10^−9, 3×10^−9 mol/L, about 30 min pretreatment)
1 | CCOc1ccccc1OCCN[C@H](C)Cc1ccc(OC)c(S(N)(=O)=O)c1 [tamsulosin hydrochloride] | 9.85 | decreases blood pressure more strongly than the compound represented by the above general formula (I) | 
2 | C[C@H](Cc1cc2c(c(C(N)=O)c1)N(CCCO)CC2)NCCOc1ccccc1OCC(F)(F)F [Compound 1, (−)-1-(3-hydroxypropyl)-5-((2R)-2-{[2-((2-[(2,2,2-trifluoroethyl)oxy]phenyl)oxy)ethyl]amino}propyl)-2,3-dihydro-1H-indole-7-carboxamide] | 9.44 |  | caused concentration-dependently a parallel rightward shift of the concentration-response curve for phenylephrine
3 | COc1ccccc1N1CCN(CC(O)COc2cccc3ccccc23)CC1 (stereo not drawn) [naftopidil] | 6.54 |  | 
4 | COc1ccccc1N1CCN(CCN2C(=O)CC3(CCCC3)CC2=O)CC1 [BMY-7378] | 5.75 |  | 
